Results reported in PubChem BioAssay (NCI).
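How tested: cells in 96-well plates exposed to compound for 48 hours at five concentrations. The concentration for 50% growth inhibition is given as GI50. TGI marks complete inhibition of growth.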

How the values were obtained:
Test in all cases: NCI-60 cell line screen, 48 h
SK-MEL-28 melanoma = tested on: SK-MEL-28 melanoma
SW-620 colon = tested on: SW-620 colon
UACC-257 melanoma = tested on: UACC-257 melanoma
A549 NSCLC = tested on: A549 NSCLC
U251 CNS = tested on: U251 CNS
K-562 leukemia = tested on: K-562 leukemia
IGROV1 ovarian = tested on: IGROV1 ovarian
NCI-H23 lung = tested on: NCI-H23 lung
UACC-62 melanoma = tested on: UACC-62 melanoma
EKVX NSCLC = tested on: EKVX NSCLC

Structure (SMILES)	GI50 (SK-MEL-28 melanoma)	TGI (SK-MEL-28 melanoma)	GI50 (SW-620 colon)	TGI (SW-620 colon)	GI50 (UACC-257 melanoma)	TGI (UACC-257 melanoma)	GI50 (A549 NSCLC)	TGI (A549 NSCLC)	GI50 (U251 CNS)	TGI (U251 CNS)	GI50 (K-562 leukemia)	TGI (K-562 leukemia)	GI50 (IGROV1 ovarian)	TGI (IGROV1 ovarian)	GI50 (NCI-H23 lung)	TGI (NCI-H23 lung)	GI50 (UACC-62 melanoma)	TGI (UACC-62 melanoma)	TGI (EKVX NSCLC)	GI50 (EKVX NSCLC)
CC(C)(Cl)CCC1=C(Cl)C(=O)c2ccccc2C1=O	2.4 µM	5.26 µM	1.74 µM	3.63 µM	1.67 µM	3.2 µM	3.2 µM	11 µM	2.43 µM	8.67 µM	1.25 µM	10.6 µM	2.35 µM	5.22 µM	2.82 µM	9.93 µM	–	–	–	–
O=C1C2CC3C(CC2C(=O)[N]1[Sn]([c]1ccccc1)([c]1ccccc1)[c]1ccccc1)C1(Cl)C(Cl)=C(Cl)C3(Cl)C1(Cl)Cl (stereo not drawn)	0.144 µM	0.295 µM	0.0636 µM	0.216 µM	0.144 µM	0.324 µM	0.14 µM	0.347 µM	0.119 µM	0.252 µM	0.0492 µM	0.754 µM	0.115 µM	0.334 µM	0.15 µM	0.388 µM	0.118 µM	0.288 µM	–	–
O=c1[nH]cnc2c(C3OC(CO)C(O)C3O)[nH]nc12 (stereo not drawn)	–	> 100 µM	–	> 100 µM	–	> 100 µM	–	–	–	> 100 µM	–	> 100 µM	–	> 100 µM	–	> 100 µM	–	> 100 µM	> 100 µM	–
CCN1C(=O)N(CC)C2C1NN=c1s/c(=C3\C(=O)N(CCC(C)C)c4ccccc43)c(=O)n12 (stereo not drawn)	2.58 µM	> 100 µM	1.08 µM	> 100 µM	3.72 µM	> 100 µM	–	–	1.88 µM	9.81 µM	0.586 µM	> 100 µM	1.23 µM	6.63 µM	1.9 µM	5.47 µM	0.607 µM	8.04 µM	> 100 µM	1.34 µM
CCOC(=O)C12CCCC1(O)N(NC(=O)c1cccc(Cl)c1)C(C)=C2C(=O)OC (stereo not drawn)	–	> 100 µM	–	> 100 µM	–	> 100 µM	–	> 100 µM	–	> 100 µM	–	> 100 µM	–	> 100 µM	–	–	–	> 100 µM	> 100 µM	–
CCCC(OCC)(OCC)OCC	–	> 100 µM	–	–	–	> 100 µM	–	> 100 µM	–	> 100 µM	–	> 100 µM	–	> 100 µM	–	> 100 µM	–	> 100 µM	> 100 µM	–
O=C(O)/C(Cl)=C(\Cl)Nc1cccc(C(F)(F)F)c1	–	> 100 µM	–	> 100 µM	–	–	–	> 100 µM	–	> 100 µM	–	> 100 µM	–	> 100 µM	–	> 100 µM	–	> 100 µM	> 100 µM	–
COc1cc2[nH]c(C(=O)c3cc(OC)c(OC)c(OC)c3)c(N)c2cc1C#CCO	0.896 µM	> 100 µM	0.294 µM	> 100 µM	–	–	0.969 µM	> 100 µM	0.431 µM	> 100 µM	0.347 µM	> 100 µM	0.795 µM	68.8 µM	0.508 µM	> 100 µM	7.56 µM	> 100 µM	–	–
C=C1C(=O)O[C@@H]2[C@H]1CC[C@H](C)[C@]1(O)CCC(=O)[C@@]21C	–	> 10 µM	–	> 10 µM	–	–	–	> 10 µM	–	> 10 µM	–	> 10 µM	–	> 10 µM	–	> 10 µM	–	> 10 µM	> 10 µM	–
